According to patent US12005064B2, “Pharmaceutical composition comprising non-ionic surfactants” (priority 2014, dated 2024):

Columns and labels:
Solubility in water = type: physicochemical; conditions: across the whole pH range
Solubility in excipients = type: physicochemical; conditions: diverse set of excipients, covering an HLB range of 1 to 20 and above

solubility in water (Solubility in water): practically insoluble in water
solubility in excipients (Solubility in excipients): poorly soluble
SMILES: CCc1cc2c(cc1N1CCC(N3CCOCC3)CC1)C(C)(C)c1[nH]c3cc(C#N)ccc3c1C2=O [9-ethyl-6,6-dimethyl-8-(4-morpholin-4-yl-piperidin-1-yl)-11-oxo-6,11-dihydro-5H-benzo[b]carbazole-3-carbonitrile]
